In patent EP1935986B1, “Luminogenic and fluorogenic compounds and methods to detect molecules or conditions” (priority 2005, dated 2006):

Tests used:
[1] = system: thermostable luciferase (Luc 146-1H2); assay: Residual thermostable luciferase activity after reaction with luciferin derivatives (Steady Glo); format: biochemical
Protocol: (§1) This stock was used to produce enzyme stock solution having of 200 µg/ml enzyme solution in 1 mg/ml BSA, 200 mM HEPES buffer, pH 8.0, 20 mM MgCl2.
(§2) Solutions were made using a 1 M DTT solution, pH adjusted to 8.0, a 20 mM Coenzyme A solution in water (both described in examples above), a 100 mM ATP solution and water to create the following solutions: Sol'A, 100 µM ATP; Sol'B, 100 µM ATP, 4 mM Coenzyme A; Sol'n C, 100 µM ATP, 400 mM DTT, and; Sol'n D, 100 µM ATP, 4 mM Coenzyme A and 400 mM DTT.
(§3) After assembly, the reactions were initiated by addition of 25 µl of the thermostable luciferase stock solution above and mixing the tube contents. A 50 µl sample was immediately removed and placed in a luminometer tube and the light read and the tube then replaced in a tube rack at room temperature. While the light reading was being taken, a 5 µl sample of the remaining reaction (which was kept at room temperature) was diluted into 495 µl of 50 mM BisTris, pH 6.5, 1 mg/ml BSA, 1 mM EDTA prechilled to 4°C and the tube mixed and placed on ice. The light produced by the samples in the luminometer tubes were re-read at 20, 40, 60, 90 and 120 minutes post enzyme addition. Additional 5 µl samples were taken and diluted as above at 60 and 120 minutes post enzyme addition. Once all these readings and samples were taken, 50 µl of the diluted samples was mixed with 50 µl of Steady Glo in luminometer tubes, the tubes incubated 10 minutes on ice then the light produced was read on a Turner TD 20/20 luminometer.

[2] = system: thermostable luciferase (Luc 146-1H2); assay: Thermostable luciferase reaction with luciferin derivatives: light readings; format: biochemical
Protocol: as §1, §2
The following reactions were prepared (Table 47) Table 47
as §3

Structure (SMILES): O=C(O)[C@H]1CSC(c2nc3ccc(OCc4ccccc4)cc3s2)=N1 [L'in-BE]
- light values obtained upon addition of the diluted reaction samples into Steady Glo reagent ([1]; Substrate 6.25, + Co A & DTT, Time Sample Taken 0 min): 1943
- light values obtained upon addition of the diluted reaction samples into Steady Glo reagent ([1]; Substrate 6.25, + Co A & DTT, Time Sample Taken 60 min): 1235
- light values obtained upon addition of the diluted reaction samples into Steady Glo reagent ([1]; Substrate 6.25, + Co A & DTT, Time Sample Taken 120 min): 1163
- light values obtained upon addition of the diluted reaction samples into Steady Glo reagent ([1]; Substrate 6.25, + Co A, Time Sample Taken 0 min): 1841
- light values obtained upon addition of the diluted reaction samples into Steady Glo reagent ([1]; Substrate 6.25, + Co A, Time Sample Taken 60 min): 518.6
- light values obtained upon addition of the diluted reaction samples into Steady Glo reagent ([1]; Substrate 6.25, + Co A, Time Sample Taken 120 min): 349.1
- light values obtained upon addition of the diluted reaction samples into Steady Glo reagent ([1]; Substrate 6.25, + DTT, Time Sample Taken 0 min): 1860
- light values obtained upon addition of the diluted reaction samples into Steady Glo reagent ([1]; Substrate 6.25, + DTT, Time Sample Taken 60 min): 1173
- light values obtained upon addition of the diluted reaction samples into Steady Glo reagent ([1]; Substrate 6.25, + DTT, Time Sample Taken 120 min): 1067
- light values obtained upon addition of the diluted reaction samples into Steady Glo reagent ([1]; Substrate 6.25, Alone, Time Sample Taken 0 min): 2057
- light values obtained upon addition of the diluted reaction samples into Steady Glo reagent ([1]; Substrate 6.25, Alone, Time Sample Taken 60 min): 406.6
- light values obtained upon addition of the diluted reaction samples into Steady Glo reagent ([1]; Substrate 6.25, Alone, Time Sample Taken 120 min): 267.7
- light values obtained upon addition of the diluted reaction samples into Steady Glo reagent ([1]; Substrate 25, + Co A & DTT, Time Sample Taken 0 min): 1925
- light values obtained upon addition of the diluted reaction samples into Steady Glo reagent ([1]; Substrate 25, + Co A & DTT, Time Sample Taken 60 min): 1102
- light values obtained upon addition of the diluted reaction samples into Steady Glo reagent ([1]; Substrate 25, + Co A & DTT, Time Sample Taken 120 min): 836.3
- light values obtained upon addition of the diluted reaction samples into Steady Glo reagent ([1]; Substrate 25, + Co A, Time Sample Taken 0 min): 1610
- light values obtained upon addition of the diluted reaction samples into Steady Glo reagent ([1]; Substrate 25, + Co A, Time Sample Taken 60 min): 277.8
- light values obtained upon addition of the diluted reaction samples into Steady Glo reagent ([1]; Substrate 25, + Co A, Time Sample Taken 120 min): 143.2
- light values obtained upon addition of the diluted reaction samples into Steady Glo reagent ([1]; Substrate 25, + DTT, Time Sample Taken 0 min): 1675
- light values obtained upon addition of the diluted reaction samples into Steady Glo reagent ([1]; Substrate 25, + DTT, Time Sample Taken 60 min): 910.2
- light values obtained upon addition of the diluted reaction samples into Steady Glo reagent ([1]; Substrate 25, + DTT, Time Sample Taken 120 min): 738.9
- light values obtained upon addition of the diluted reaction samples into Steady Glo reagent ([1]; Substrate 25, Alone, Time Sample Taken 0 min): 1309
- light values obtained upon addition of the diluted reaction samples into Steady Glo reagent ([1]; Substrate 25, Alone, Time Sample Taken 60 min): 157.1
- light values obtained upon addition of the diluted reaction samples into Steady Glo reagent ([1]; Substrate 25, Alone, Time Sample Taken 120 min): 72.57
- light values obtained upon addition of the diluted reaction samples into Steady Glo reagent ([1]; Substrate 100, + Co A & DTT, Time Sample Taken 0 min): 1780
- light values obtained upon addition of the diluted reaction samples into Steady Glo reagent ([1]; Substrate 100, + Co A & DTT, Time Sample Taken 60 min): 1016
- light values obtained upon addition of the diluted reaction samples into Steady Glo reagent ([1]; Substrate 100, + Co A & DTT, Time Sample Taken 120 min): 778.7
- light values obtained upon addition of the diluted reaction samples into Steady Glo reagent ([1]; Substrate 100, + Co A, Time Sample Taken 0 min): 1486
- light values obtained upon addition of the diluted reaction samples into Steady Glo reagent ([1]; Substrate 100, + Co A, Time Sample Taken 60 min): 242.2
- light values obtained upon addition of the diluted reaction samples into Steady Glo reagent ([1]; Substrate 100, + Co A, Time Sample Taken 120 min): 82.03
- light values obtained upon addition of the diluted reaction samples into Steady Glo reagent ([1]; Substrate 100, + DTT, Time Sample Taken 0 min): 1762
- light values obtained upon addition of the diluted reaction samples into Steady Glo reagent ([1]; Substrate 100, + DTT, Time Sample Taken 60 min): 952.1
- light values obtained upon addition of the diluted reaction samples into Steady Glo reagent ([1]; Substrate 100, + DTT, Time Sample Taken 120 min): 691
- light values obtained upon addition of the diluted reaction samples into Steady Glo reagent ([1]; Substrate 100, Alone, Time Sample Taken 0 min): 1245
- light values obtained upon addition of the diluted reaction samples into Steady Glo reagent ([1]; Substrate 100, Alone, Time Sample Taken 60 min): 156.4
- light values obtained upon addition of the diluted reaction samples into Steady Glo reagent ([1]; Substrate 100, Alone, Time Sample Taken 120 min): 61.75
- light readings from the reaction samples ([2]; substrate 6.25 (L'in-BE: 6.26), + Co A & DTT, Time 0 min): 436.9
- light readings from the reaction samples ([2]; substrate 6.25 (L'in-BE: 6.26), + Co A & DTT, Time 20 min): 80.41
- light readings from the reaction samples ([2]; substrate 6.25 (L'in-BE: 6.26), + Co A & DTT, Time 40 min): 38.47
- light readings from the reaction samples ([2]; substrate 6.25 (L'in-BE: 6.26), + Co A & DTT, Time 60 min): 22.83
- light readings from the reaction samples ([2]; substrate 6.25 (L'in-BE: 6.26), + Co A & DTT, Time 90 min): 16.08
- light readings from the reaction samples ([2]; substrate 6.25 (L'in-BE: 6.26), + Co A & DTT, Time 120 min): 12.01
- light readings from the reaction samples ([2]; substrate 6.25 (L'in-BE: 6.26), + Co A, Time 0 min): 2575
- light readings from the reaction samples ([2]; substrate 6.25 (L'in-BE: 6.26), + Co A, Time 20 min): 207.1
- light readings from the reaction samples ([2]; substrate 6.25 (L'in-BE: 6.26), + Co A, Time 40 min): 83.73
- light readings from the reaction samples ([2]; substrate 6.25 (L'in-BE: 6.26), + Co A, Time 60 min): 45.54
- light readings from the reaction samples ([2]; substrate 6.25 (L'in-BE: 6.26), + Co A, Time 90 min): 24
- light readings from the reaction samples ([2]; substrate 6.25 (L'in-BE: 6.26), + Co A, Time 120 min): 14.42
- light readings from the reaction samples ([2]; substrate 6.25 (L'in-BE: 6.26), + DTT, Time 0 min): 455.6
- light readings from the reaction samples ([2]; substrate 6.25 (L'in-BE: 6.26), + DTT, Time 20 min): 71.9
- light readings from the reaction samples ([2]; substrate 6.25 (L'in-BE: 6.26), + DTT, Time 40 min): 33.73
- light readings from the reaction samples ([2]; substrate 6.25 (L'in-BE: 6.26), + DTT, Time 60 min): 21.49
- light readings from the reaction samples ([2]; substrate 6.25 (L'in-BE: 6.26), + DTT, Time 90 min): 13.67
- light readings from the reaction samples ([2]; substrate 6.25 (L'in-BE: 6.26), + DTT, Time 120 min): 9.847
- light readings from the reaction samples ([2]; substrate 6.25 (L'in-BE: 6.26), Alone, Time 0 min): 785.5
- light readings from the reaction samples ([2]; substrate 6.25 (L'in-BE: 6.26), Alone, Time 20 min): 62.64
- light readings from the reaction samples ([2]; substrate 6.25 (L'in-BE: 6.26), Alone, Time 40 min): 22.11
- light readings from the reaction samples ([2]; substrate 6.25 (L'in-BE: 6.26), Alone, Time 60 min): 11.22
- light readings from the reaction samples ([2]; substrate 6.25 (L'in-BE: 6.26), Alone, Time 90 min): 5.189
- light readings from the reaction samples ([2]; substrate 6.25 (L'in-BE: 6.26), Alone, Time 120 min): 2.995
- light readings from the reaction samples ([2]; substrate 25, + Co A & DTT, Time 0 min): 402
- light readings from the reaction samples ([2]; substrate 25, + Co A & DTT, Time 20 min): 85.37
- light readings from the reaction samples ([2]; substrate 25, + Co A & DTT, Time 40 min): 45.87
- light readings from the reaction samples ([2]; substrate 25, + Co A & DTT, Time 60 min): 27.94
- light readings from the reaction samples ([2]; substrate 25, + Co A & DTT, Time 90 min): 18.94
- light readings from the reaction samples ([2]; substrate 25, + Co A & DTT, Time 120 min): 13.13
- light readings from the reaction samples ([2]; substrate 25, + Co A, Time 0 min): 972.4
- light readings from the reaction samples ([2]; substrate 25, + Co A, Time 20 min): 127.4
- light readings from the reaction samples ([2]; substrate 25, + Co A, Time 40 min): 58.9
- light readings from the reaction samples ([2]; substrate 25, + Co A, Time 60 min): 31.96
- light readings from the reaction samples ([2]; substrate 25, + Co A, Time 90 min): 17.54
- light readings from the reaction samples ([2]; substrate 25, + Co A, Time 120 min): 9.727
- light readings from the reaction samples ([2]; substrate 25, + DTT, Time 0 min): 448.6
- light readings from the reaction samples ([2]; substrate 25, + DTT, Time 20 min): 84.21
- light readings from the reaction samples ([2]; substrate 25, + DTT, Time 40 min): 43.77
- light readings from the reaction samples ([2]; substrate 25, + DTT, Time 60 min): 27.21
- light readings from the reaction samples ([2]; substrate 25, + DTT, Time 90 min): 18.48
- light readings from the reaction samples ([2]; substrate 25, + DTT, Time 120 min): 12.93
- light readings from the reaction samples ([2]; substrate 25, Alone, Time 0 min): 623.2
- light readings from the reaction samples ([2]; substrate 25, Alone, Time 20 min): 73.96
- light readings from the reaction samples ([2]; substrate 25, Alone, Time 40 min): 28.76
- light readings from the reaction samples ([2]; substrate 25, Alone, Time 60 min): 13.42
- light readings from the reaction samples ([2]; substrate 25, Alone, Time 90 min): 5.528
- light readings from the reaction samples ([2]; substrate 25, Alone, Time 120 min): 2.549
- light readings from the reaction samples ([2]; substrate 100, + Co A & DTT, Time 0 min): 140.4
- light readings from the reaction samples ([2]; substrate 100, + Co A & DTT, Time 20 min): 71.5
- light readings from the reaction samples ([2]; substrate 100, + Co A & DTT, Time 40 min): 45.66
- light readings from the reaction samples ([2]; substrate 100, + Co A & DTT, Time 60 min): 29.32
- light readings from the reaction samples ([2]; substrate 100, + Co A & DTT, Time 90 min): 19.92
- light readings from the reaction samples ([2]; substrate 100, + Co A & DTT, Time 120 min): 13.08
- light readings from the reaction samples ([2]; substrate 100, + Co A, Time 0 min): 191.9
- light readings from the reaction samples ([2]; substrate 100, + Co A, Time 20 min): 63.85
- light readings from the reaction samples ([2]; substrate 100, + Co A, Time 40 min): 29.28
- light readings from the reaction samples ([2]; substrate 100, + Co A, Time 60 min): 14.78
- light readings from the reaction samples ([2]; substrate 100, + Co A, Time 90 min): 6.652
- light readings from the reaction samples ([2]; substrate 100, + Co A, Time 120 min): 3.014
- light readings from the reaction samples ([2]; substrate 100, + DTT, Time 0 min): 148.7
- light readings from the reaction samples ([2]; substrate 100, + DTT, Time 20 min): 77.9
- light readings from the reaction samples ([2]; substrate 100, + DTT, Time 40 min): 48.39
- light readings from the reaction samples ([2]; substrate 100, + DTT, Time 60 min): 32.26
- light readings from the reaction samples ([2]; substrate 100, + DTT, Time 90 min): 21.71
- light readings from the reaction samples ([2]; substrate 100, + DTT, Time 120 min): 14.25
- light readings from the reaction samples ([2]; substrate 100, Alone, Time 0 min): 160
- light readings from the reaction samples ([2]; substrate 100, Alone, Time 20 min): 48.21
- light readings from the reaction samples ([2]; substrate 100, Alone, Time 40 min): 19.25
- light readings from the reaction samples ([2]; substrate 100, Alone, Time 60 min): 8.305
- light readings from the reaction samples ([2]; substrate 100, Alone, Time 90 min): 2.843
- light readings from the reaction samples ([2]; substrate 100, Alone, Time 120 min): 1.311
